Test results: EP0151577B1 (priority 1983, dated 1984)

What was measured:
souris [1] = experiment: Pentobarbital sleeping time; assay type: in vivo
Procedure: (§1) Les mesures ont été faites a 15, 30 et 60 minutes après I'administration par voie intrapéritonéale (i.p.) a des souris.

souris [2] = experiment: Rotarod test
Procedure: as §1

M. Leprae = experiment: Incorporation of 3H-DOPA by M. leprae in vitro; assay type: cell-based, Mycobacterium leprae; settings: 6 h
From the text: Le tableau 6 rassemble des résultats d'essai concernant l'activité du DF-5HTP sur l'incorporation de la DOPA dans les Mycobacteries de la lèpre. Le protocole experimental était celui décrit dans JAYARAMAN, P., […], P.R., MESTER, M. and MESTER, L. Inhibition of the incorporation of ^3H-DOPA in Mycobacterium leprae by Desoxyfructo-serotonin. Biochem. Pharm., 29, 2526,1980.
On a inoculé 5 x 10^6 M. leprae par tube; le milieu était un tampon phosphate à pH 6,8. La quantité de 3H-DOPA était de 1 µ. Ci/tube.
Protocole: Chaque tube de 0,5 ml est inocule de 5 x 10^6 M. leprae et de 1 µ Ci de ^3H-DOPA. Après 6 heures, I'incorporation de la DOPA radioactive est enregistrée en DPM selon la technique utilisée dans JAYARAMAN, P., […], P.R., MESTER, M. and MESTER, L. Inhibition of the Incorporation of ^3H-DOPA in Mycobacterium leprae by Desoxyfructo-serotonin. Biochem. Pharm., 29,2526,1980.

souris [3] = experiment: Tremor score in mice pretreated with a MAO inhibitor (Harmaline); assay type: in vivo; settings: for Score total (tremblements): Harmaline pretreatment, 5 souris
Procedure: Les conditions expérimentales étaient les suivantes:
Chez des souris prétraitées par un inhibiteur de la MAO (Harmaline 25 mg/kg/ P.O.), I'injection de 5HTP (1 heure après l'IMAO) entraîne l'apparition de tremblements plus ou moins généralisés, accompagnés ou non d'hyperactivité motrice et qui sont dus a I'accumulation de sérotonine non dégradée au niveau des récepteurs post-synaptiques cérébraux. On peut établir pour chaque souris une cotation chiffrée suivant l'intensité des symptômes observes au cours du temps (cotation toutes les 5 min. entre la 5ème et la 45ème min. après I'injection de 5 HTP puis toutes les 15 min. jusqu'à la 75ème min.).
On additionne en une score total tous les chiffres obtenus aux différents temps sur des lots de 5 ou 10 souris.
Les actions du 5 HTP ont été comparées a celles du DF-5HTP.

souris [4] = experiment: Anti-stress activity: milk-induced leucocytosis; assay type: in vivo; settings: 174 mg/kg i.p.; 0,1 ml de lait s.c. before treatment; lait seulement 23866 ± 214
souris [5] = experiment: General pharmacological profile: respiratory rate; assay type: in vivo; settings: souris
From the text: Activite motrice spontanée: MODIGH, K., Central and peripheral effects of 5-hydroxytryptophan on motor activity in mice. Psychopharmacologia (Berlin), 23, 48, 1972. Cadence respiratoire: […], S., and VALZELLI, L. Serotonin and cardiovascular system, Chapter 9, in "Serotonin", Elsevier Publ. Co. Amsterdam 1965.
COHEN, Y. and BLANCHARD, P. Influence de la chelation du calcium sur les effets tensionnels de la sérotonine chez le chien. J. Physiol., 52, 569,1960.
BRAUNWALD, E. Control of myocardial oxygen consumption: Physiologic and clinical considerations. Am. J. Cardiol., 27 (4), 416,1971.

Tension sanguine = experiment: Cardiovascular activity: blood pressure; assay type: in vivo
From the text: Le protocole experimental était celui décrit dans "Sugar Derivatives of Indolamines. part V: Cardiovascular Effects and "Anti-stress" Activity of Desoxyfructose Derivative of Serotonin and 5-Metho-xy- tryptamin", L. Mester, M. Mester, K.P. Bhargava, C. Labrid, G. Dureng and M. Cheucle, THROMBOSIS […], 15,245,1979.

[6] = system: 5-HT (dans tout le cerveau); experiment: Amount of serotonin (5-HT) in whole brain, spectrophotofluorometric; assay type: in vivo, souris
From the text: Les quantités de sérotonine ont été estimees par une méthode spectrophotofluorométrique, telle que décrite par Solomon et al. Biochem. Pharmacology 14, 831 (1965). Les résultats de ces essais sont rassemblés dans le Tableau 10 ci-après.
• * Chaque valeur représente la moyenne de quatre animaux d'experience (souris) • ** La concentration de 5-HT est exprimée par gramme de tissu frais (cerveau).

[7] = 10 mg par voie cérébroventriculaire

## O=C(O)C(Cc1c[nH]c2ccc(O)cc12)NCC1(O)OCC(O)C(O)C1O (stereo not shown) [DF-5HTP, N-1-desoxyfructo-5-hydroxytryptophane]
Souris [1]; 100 mg/kg (ip), 15 min, Tableau 2
  Temps de sommeil au pentobarbital % du témoin (témoin =100): 140 % du témoin
Souris [1]; 100 mg/kg (ip), 30 min
  Temps de sommeil au pentobarbital % du témoin (témoin =100): 114 % du témoin
Souris [1]; 100 mg/kg (ip), 60 min
  Temps de sommeil au pentobarbital % du témoin (témoin =100): 103 % du témoin
Souris [1]; 174 mg/kg (ip), 15 min
  Temps de sommeil au pentobarbital % du témoin (témoin =100): 93 % du témoin
Souris [1]; 174 mg/kg (ip), 30 min
  Temps de sommeil au pentobarbital % du témoin (témoin =100): 95 % du témoin
Souris [1]; 174 mg/kg (ip), 60 min
  Temps de sommeil au pentobarbital % du témoin (témoin =100): 91 % du témoin
Souris [2]; 100 mg/kg (ip), 15 min
  Essai à la tige Rotarod: Défaut de coordination musculaire observé (Nbre de souris): 0/5
Souris [2]; 100 mg/kg (ip), 30 min
  Essai à la tige Rotarod: Défaut de coordination musculaire observé (Nbre de souris): 0/5
Souris [2]; 100 mg/kg (ip), 60 min
  Essai à la tige Rotarod: Défaut de coordination musculaire observé (Nbre de souris): 0/5
Souris [2]; 174 mg/kg (ip), 15 min
  Essai à la tige Rotarod: Défaut de coordination musculaire observé (Nbre de souris): 0/5
Souris [2]; 174 mg/kg (ip), 30 min
  Essai à la tige Rotarod: Défaut de coordination musculaire observé (Nbre de souris): 0/5
Souris [2]; 174 mg/kg (ip), 60 min
  Essai à la tige Rotarod: Défaut de coordination musculaire observé (Nbre de souris): 0/5
Souris [2]; 174 mg/kg i.p., témoin 11,3 ± 3,1
  Performance à l'essai Rotarod Moyenne (Sec): 16,4 ± 2,4 (30) Sec
M. Leprae; 1 µg/ml, Armadillo M.Leprae N°2275/5, témoins 5977
  incorporation de 3H-DOPA par M. Leprae: 2922 DPM
M. Leprae; 1 µg/ml, Armadillo M.Leprae N°2275/5 Tués par la chaleur, témoins 915
  incorporation de 3H-DOPA par M. Leprae: 1008 DPM
M. Leprae; 1 µg/ml, Armadillo M.Leprae N°2457/103, témoins 4215
  incorporation de 3H-DOPA par M. Leprae: 2555 DPM
M. Leprae; 1 µg/ml, Armadillo M.Leprae N°2457/103 Tués par la chaleur, témoins 2855
  incorporation de 3H-DOPA par M. Leprae: 2660 DPM
M. Leprae; 5 µg/ml, Armadillo M.Leprae N°2275/5, témoins 5977
  incorporation de 3H-DOPA par M. Leprae: 1599 DPM
M. Leprae; 5 µg/ml, Armadillo M.Leprae N°2275/5 Tués par la chaleur, témoins 915
  incorporation de 3H-DOPA par M. Leprae: 732 DPM
M. Leprae; 5 µg/ml, Armadillo M.Leprae N°2457/103, témoins 4215
  incorporation de 3H-DOPA par M. Leprae: 1930 DPM
M. Leprae; 5 µg/ml, Armadillo M.Leprae N°2457/103 Tués par la chaleur, témoins 2855
  incorporation de 3H-DOPA par M. Leprae: 2675 DPM
Souris [3]; 150 mg/kg S.C. (mole for mole 75 mg/kg of 5 HTP)
  Score total (tremblements): 0
Souris [3]; 500 mg/kg S.C.
  Score total (tremblements): 0
Souris [3]; souris pretreated with Harmaline, overall statement
  activité dans l'essai des tremblements: inactif
Souris [4]
  Effet sur la leu-cocytose induite par le lait Moyenne T.L.C./Cmm: 10468 ± 130 (8) /Cmm
Souris [5]; 100 mg/kg (ip), Tableau 2
  Cadence respira-toire: sans effet
Souris [5]; 174 mg/kg (ip)
  Cadence respira-toire: sans effet
Tension sanguine; [7]
  Tension sanguine Durée: 50 min
  Tension sanguine Mesure à: 1 min
  Tension sanguine Pic: 5 min
Tension sanguine; 100 mg par voie intraveineuse
  Tension sanguine Durée: 30 min
  Tension sanguine Mesure à (min): immé-diat
  Tension sanguine Pic: 1 min
[6]; 100 mg/kg i.p., 15 min., Solution Saline 60,0, mean of 4 souris
  Quantités de 5-HT (dans tout le cerveau): 87,5
[6]; 174 mg/kg i.p., 15 min., Solution Saline 60,0, mean of 4 souris
  Quantités de 5-HT (dans tout le cerveau): 75,0
[6]; 174 mg/kg i.p., 30 min., par gramme de tissu frais, Solution Saline 107
  Quantités de 5-HT (dans tout le cerveau): 200,4
[6]; 174 mg/kg i.p., 60 min., par gramme de tissu frais, Solution Saline 100
  Quantités de 5-HT (dans tout le cerveau): 160,8
